Measured values as given in the supplement of paper PMC10331698.
± gives the standard deviation of the averaged measurements.

Experiments:
Experiment in all cases: level (log10 ratio to DMSO vehicle control); higher = higher biomarker level / cell amount than vehicle control
Conditions in all cases: in DMSO
[1] = compound: OCC(F)(F)C(F)(F)C(F)(F)C(F)(F)C(F)(F)C(F)F [1H,1H,7H-Dodecafluoro-1-heptanol]
Experimental: (§1)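 BioMAP Diversity Plus panel of 12 human primary cell co-culture systems (3C, 4H, LPS, SAg, BT, BF4T, BE3C, CASM3C, HDF3CGF, KF3CT, MyoF, Mphg). Compounds were added 1 h before stimulation and left for 24 h (MyoF 48 h; BT 72 h for soluble read-outs or 6 d for IgG). Biomarkers were read by ELISA, cytotoxicity by SRB, PBMC viability and proliferation by Alamar Blue. Each well value was divided by the mean of 8 DMSO control wells on the same plate and log10 transformed; duplicate blinded samples were tested at 4 concentrations.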

[2] = compound: O=C(O)CCC(F)(F)C(F)(F)C(F)(F)C(F)(F)C(F)(F)F [2H,2H,3H,3H-Perfluorooctanoic acid]
Experimental: as §1

1-(Perfluorohexyl)octane = compound: CCCCCCCCC(F)(F)C(F)(F)C(F)(F)C(F)(F)C(F)(F)C(F)(F)F [1-(Perfluorohexyl)octane]
Experimental: as §1

[3] = compound: O=S(=O)(O)C(F)(F)C(F)(F)C(F)(F)C(F)(F)C(F)(F)C(F)(F)C(F)(F)C(F)(F)F [Potassium perfluorooctanesulfonate]
Experimental: as §1

Perfluorohexanoic acid = compound: O=C(O)C(F)(F)C(F)(F)C(F)(F)C(F)(F)C(F)(F)F [Perfluorohexanoic acid]
Experimental: as §1

[4] = compound: O=C(O)C(F)(F)C(F)(F)C(F)(F)C(F)(F)C(F)(F)C(F)(F)C(F)(F)C(F)(F)Cl [9-Chloro-perfluorononanoic acid]
Experimental: as §1

Perfluorooctanamidine = compound: N=C(N)C(F)(F)C(F)(F)C(F)(F)C(F)(F)C(F)(F)C(F)(F)C(F)(F)F [Perfluorooctanamidine]
Experimental: as §1

Test System | level (log10) ([1]; 6700 nM) | level (log10) ([1]; 20000 nM) | level (log10) ([1]; 60000 nM) | level (log10) ([2]; 6700 nM) | level (log10) ([2]; 20000 nM) | level (log10) ([2]; 60000 nM) | level (log10) (1-(Perfluorohexyl)octane; 6700 nM) | level (log10) (1-(Perfluorohexyl)octane; 20000 nM) | level (log10) ([3]; 6700 nM) | level (log10) ([3]; 20000 nM) | level (log10) ([3]; 60000 nM) | level (log10) (Perfluorohexanoic acid; 6700 nM) | level (log10) (Perfluorohexanoic acid; 20000 nM) | level (log10) (Perfluorohexanoic acid; 60000 nM) | level (log10) ([4]; 6700 nM) | level (log10) ([4]; 20000 nM) | level (log10) (Perfluorooctanamidine; 6700 nM) | level (log10) (Perfluorooctanamidine; 20000 nM) | level (log10) (Perfluorooctanamidine; 60000 nM)
KF3CT:CXCL10/IP-10 | 0.004 | 0 ± 0.0014 | -0.0055 ± 0.005 | -0.0045 ± 0.0021 | -0.0125 ± 0.0078 | -0.0185 ± 0.011 | -0.0055 ± 0.018 | -0.011 ± 0.0099 | -0.0075 ± 0.032 | -0.0015 ± 0.016 | -0.0335 ± 0.012 | 0.0045 ± 0.0092 | 0.0045 ± 0.005 | 0.017 ± 0.0014 | -0.0235 ± 0.0035 | -0.0715 ± 0.0092 | 0.012 ± 0.042 | 0.0025 ± 0.04 | 0.04
KF3CT:IL-1alpha | -0.016 ± 0.025 | -0.0195 ± 0.032 | -0.0115 ± 0.043 | 0.007 ± 0.0085 | -0.0055 ± 0.016 | -0.0345 ± 0.029 | -0.009 ± 0.04 | 0.0175 ± 0.0092 | -0.0105 ± 0.016 | -0.0085 ± 0.026 | -0.029 ± 0.0028 | -0.0045 ± 0.011 | -0.0185 ± 0.011 | 0.008 ± 0.021 | -0.0295 ± 0.042 | -0.056 ± 0.031 | -0.005 ± 0.04 | 0.0115 ± 0.011 | 0.03
KF3CT:MMP-9 | 0.0075 ± 0.005 | -0.003 ± 0.011 | 0.011 ± 0.0014 | -0.0235 ± 0.021 | -0.018 ± 0.02 | 0.026 ± 0.0057 | -0.006 ± 0.024 | 0.0075 ± 0.029 | -0.013 ± 0.0099 | -0.038 ± 0.0042 | -0.0735 ± 0.023 | -0.009 ± 0.014 | -0.0055 ± 0.0035 | 0.017 ± 0.016 | -0.0345 ± 0.0021 | -0.106 ± 0.0071 | -0.006 ± 0.0028 | -0.0275 ± 0.023 | -0.032
KF3CT:PAI-I | -0.0075 ± 0.0092 | -0.0035 ± 0.011 | 0 ± 0.0042 | -0.0015 ± 0.00071 | -0.0065 ± 0.0021 | -0.017 ± 0.0085 | 0.0165 ± 0.0078 | 0.026 ± 0.011 | -0.044 ± 0.027 | -0.053 ± 0.0071 | -0.125 ± 0.024 | -0.0075 ± 0.00071 | -0.0175 ± 0.0035 | -0.0085 ± 0.00071 | -0.01 ± 0.0057 | -0.101 ± 0.0078 | -0.001 ± 0.033 | -0.017 ± 0.044 | -0.008
KF3CT:SRB | -0.0025 ± 0.0064 | -0.001 ± 0.0042 | 0.002 ± 0.0085 | -0.006 ± 0.0014 | -0.0015 ± 0.005 | 0.006 ± 0.0085 | -0.0025 ± 0.023 | -0.0115 ± 0.015 | -0.0075 ± 0.0078 | -0.011 ± 0.0014 | -0.006 ± 0.0057 | 0.0045 ± 0.0035 | -0.012 ± 0.0014 | 0.0045 ± 0.00071 | -0.0135 ± 0.0035 | -0.0145 ± 0.012 | -0.001 ± 0.0014 | -0.004 ± 0.0014 | 0.027
KF3CT:TIMP-2 | 0.0015 ± 0.005 | 0.0015 ± 0.0021 | 0.0015 ± 0.0064 | -0.011 | -0.02 ± 0.024 | 0.015 ± 0.0099 | 0.004 ± 0.02 | -0.016 ± 0.011 | -0.01 ± 0.013 | 0.002 ± 0.02 | 0.0145 ± 0.0078 | 0.004 ± 0.016 | -0.0125 ± 0.0035 | -0.0125 ± 0.0078 | -0.0205 ± 0.0021 | -0.0015 ± 0.0021 | 0.01 ± 0.0014 | 0 ± 0.02 | 0.035
KF3CT:uPA | 0.001 ± 0.011 | -0.0155 ± 0.013 | 0.0035 ± 0.015 | -0.008 ± 0.013 | -0.0095 ± 0.033 | -0.004 ± 0.041 | 0.01 ± 0.024 | -0.0055 ± 0.029 | -0.011 ± 0.0099 | -0.004 ± 0.011 | -0.027 | 0.0125 ± 0.0064 | -0.004 ± 0.0085 | 0.016 ± 0.0099 | 0.0095 ± 0.0078 | 0.01 | 0.0015 ± 0.0021 | 0.0165 ± 0.0035 | 0.01
MyoF:CD106/VCAM-1 | -0.014 ± 0.021 | -0.0115 ± 0.0092 | -0.019 ± 0.016 | -0.0015 ± 0.019 | -0.0115 ± 0.021 | 0.0005 ± 0.012 | -0.0085 ± 0.005 | -0.027 ± 0.033 | 0.002 ± 0.027 | 0.0045 ± 0.029 | 0.0015 ± 0.019 | 0.002 ± 0.0057 | 0.002 ± 0.0071 | -0.0095 ± 0.013 | -0.008 ± 0.025 | -0.101 ± 0.023 | 0.0115 ± 0.026 | -0.002 ± 0.018 | 0.011
